Laboratory results as given in patent US8513161B2, “Enhancement of plant growth” (Valent Biosciences Corporation, priority 2007, dated 2013).
Where a name gives a salt, the structure may show the parent alone.

Tested on: cotton
Experiment: Continuous exposure pouch study, PESA salt and clothianidin on cotton
Type: in vivo
Settings: for shoot length of cotton / root length of cotton: in pouch; for shoot length of cotton: control 6.1; for root length of cotton: control 11.4
Method: Seeds were placed in germination pouches consisting of germination paper hydrated with sterile water that was an insert in a gas-permeable 16×14 cm plastic pouch (CYG Pouch; Mega International, St. Paul, Minn.). In these examples, in pouch solution evaluation, clothianidin and PESA sodium salt were added to the sterile water in the pouch. Alternatively, imidacloprid or dinotefuran and PESA sodium salt were added to the sterile water in the pouch. The pouches were arranged in a completely randomized block design in growth racks and placed in 19-liter polycarbonate food storage containers (Rubbermaid Commercial Products, Winchester, Va.). The sealed containers were held in an upright growth cabinet maintained at 25 C with a 12 hour light: 12 hour dark photoperiod. After 6 days, the containers were removed from the growth cabinet, and the lengths of the roots and shoot were measured.

With `O=C(O)CCC(=O)NCCc1ccccc1` [PESA salt] the “safening of cotton” value (continuous exposure pouch, conclusion from Table 3) was “safened cotton against clothianidin-induced root growth inhibition”, the “effect on cotton root length” value (continuous exposure pouch, substance alone) was “increased root length in a dose-dependent manner” and the “effect on cotton shoot length” value (continuous exposure pouch, 300 mg/liter PESA salt alone) was “reduced”. For the same molecule, the “shoot length of cotton” value (PESA salt 10 mg/liter alone) was 6.3 cm, the “root length of cotton” value (PESA salt 10 mg/liter alone) was 14.2 cm and the “shoot length of cotton” value (PESA salt 30 mg/liter alone) was 6.1 cm. For the same molecule, the “root length of cotton” value (PESA salt 30 mg/liter alone) was 15.3 cm, the “shoot length of cotton” value (PESA salt 100 mg/liter alone) was 6.0 cm and the “root length of cotton” value (PESA salt 100 mg/liter alone) was 16.2 cm. For the same molecule, the “shoot length of cotton” value (PESA salt 300 mg/liter alone) was 5.4 cm.
